ChEMBL document CHEMBL5143548, “Morphinan derivatives with an oxabicyclo[3.2.1]octane structure as dual agonists toward δ and κ opioid receptors” (Bioorg Med Chem, 2022)

Tests used:
Homo sapiens [1] = species: Homo sapiens; experiment: Selectivity ratio of Ki for displacement of [3H]-DAMGO from recombinant human MOR expressed in CHO cell membranes to Ki for displacement of [3H]-U-69593 from recombinant human KOR expressed in CHO cell membranes
mu opioid receptor (MOR) = mu opioid receptor (MOR) (Homo sapiens, UniProt P35372); experiment: Agonist activity at human mu opioid receptor expressed in CHO cell membranes assessed as stimulation of [35S]GTPgammaS binding incubated for 2 hrs by scintillation counting method relative to DAMGO; design: species or system Membrane; conditions: CHO cell membranes expressing human mu opioid receptor, probe [35S]GTPgammaS
Chain of mu opioid receptor (MOR) (P35372 whole entry): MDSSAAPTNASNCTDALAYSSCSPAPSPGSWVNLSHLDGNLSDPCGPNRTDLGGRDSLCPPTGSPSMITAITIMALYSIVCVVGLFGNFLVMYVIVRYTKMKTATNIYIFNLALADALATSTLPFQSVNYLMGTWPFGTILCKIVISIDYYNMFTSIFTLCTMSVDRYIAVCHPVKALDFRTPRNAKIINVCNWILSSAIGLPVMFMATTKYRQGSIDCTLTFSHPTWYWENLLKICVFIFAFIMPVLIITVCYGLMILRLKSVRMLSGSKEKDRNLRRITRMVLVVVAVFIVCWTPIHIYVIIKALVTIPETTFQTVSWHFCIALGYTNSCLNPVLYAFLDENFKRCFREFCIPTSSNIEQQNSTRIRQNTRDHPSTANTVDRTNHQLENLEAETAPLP

[2] = target: T1, Kappa-type opioid receptor (Homo sapiens, UniProt P41145); experiment: Agonist activity at human kappa opioid receptor expressed in CHO cell membranes assessed as stimulation of [35S]GTPgammaS binding incubated for 2 hrs by scintillation counting method; format: functional, Membrane
T1 sequence (P41145 whole entry): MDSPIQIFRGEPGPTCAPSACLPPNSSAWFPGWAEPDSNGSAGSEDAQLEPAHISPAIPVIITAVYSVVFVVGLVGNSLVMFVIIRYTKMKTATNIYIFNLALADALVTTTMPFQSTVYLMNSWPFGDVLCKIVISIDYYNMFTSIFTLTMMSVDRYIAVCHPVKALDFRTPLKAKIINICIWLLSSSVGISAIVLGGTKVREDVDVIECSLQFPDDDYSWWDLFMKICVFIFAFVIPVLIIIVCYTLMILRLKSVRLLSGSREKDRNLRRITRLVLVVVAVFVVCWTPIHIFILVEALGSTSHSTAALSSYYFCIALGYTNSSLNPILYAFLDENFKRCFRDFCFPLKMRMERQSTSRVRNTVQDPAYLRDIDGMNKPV

[3] = target: T1, Kappa-type opioid receptor; experiment: Agonist activity at human kappa opioid receptor expressed in CHO cell membranes assessed as stimulation of [35S]GTPgammaS binding incubated for 2 hrs by scintillation counting method relative to U-69593; format: functional; conditions: Membrane
[4] = target: T2, Delta-type opioid receptor (Homo sapiens, UniProt P41143); experiment: Agonist activity at human delta opioid receptor expressed in CHO cell membranes assessed as stimulation of [35S]GTPgammaS binding incubated for 2 hrs by scintillation counting method; format: functional, Membrane
T2 sequence (P41143 whole entry): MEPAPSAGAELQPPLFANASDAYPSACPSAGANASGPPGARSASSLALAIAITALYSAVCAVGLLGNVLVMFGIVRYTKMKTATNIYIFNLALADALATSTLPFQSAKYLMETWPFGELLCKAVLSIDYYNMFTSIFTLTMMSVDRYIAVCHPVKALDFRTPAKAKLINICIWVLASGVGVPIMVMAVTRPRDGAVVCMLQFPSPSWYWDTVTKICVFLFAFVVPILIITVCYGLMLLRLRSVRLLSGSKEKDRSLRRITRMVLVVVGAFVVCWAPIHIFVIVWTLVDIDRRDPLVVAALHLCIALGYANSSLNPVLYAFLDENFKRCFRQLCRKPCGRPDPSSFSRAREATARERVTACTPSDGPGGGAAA

[5] = target: T1, Kappa-type opioid receptor; experiment: Displacement of [3H]-U-69593 from recombinant human KOR expressed in CHO cell membranes measured after 2 hrs by microbeta scintillation counting method; design: species or system Membrane
Mu-type opioid receptor [6] = target: T3, Mu-type opioid receptor (Homo sapiens, UniProt P35372); experiment: Agonist activity at human mu opioid receptor expressed in CHO cell membranes assessed as stimulation of [35S]GTPgammaS binding incubated for 2 hrs by scintillation counting method; design: species or system Membrane
T3 sequence (P35372 whole entry): as the sequence (P35372 whole entry) above

[7] = target: T2, Delta-type opioid receptor; experiment: Displacement of [3H]-DPDPE from recombinant human DOR expressed in CHO cell membranes measured after 2 hrs by microbeta scintillation counting method; design: species or system Membrane
Homo sapiens [8] = species: Homo sapiens; experiment: Selectivity ratio of Ki for displacement of [3H]-DPDPE from recombinant human DOR expressed in CHO cell membranes to Ki for displacement of [3H]-U-69593 from recombinant human KOR expressed in CHO cell membranes
Mu-type opioid receptor [9] = target: T3, Mu-type opioid receptor; experiment: Displacement of [3H]-DAMGO from recombinant human MOR expressed in CHO cell membranes measured after 2 hrs by microbeta scintillation counting method; design: species or system Membrane
[10] = target: T2, Delta-type opioid receptor; experiment: Agonist activity at human delta opioid receptor expressed in CHO cell membranes assessed as stimulation of [35S]GTPgammaS binding incubated for 2 hrs by scintillation counting method relative to SNC80; format: functional; conditions: Membrane
Mu-type opioid receptor [11] = target: T3, Mu-type opioid receptor; experiment: Agonist activity at human mu opioid receptor expressed in CHO cell membranes assessed as stimulation of [35S]GTPgammaS binding at 10 uM incubated for 2 hrs by scintillation counting method relative to DAMGO; design: species or system Membrane

CN(C(=O)c1ccccc1)[C@@H]1C[C@]23CCN(CC4CC4)[C@H](Cc4ccc(O)cc42)[C@]32CC[C@@H]1O2
Ratio Ki (Homo sapiens [1]): 5.5 | Emax at 2 h (mu opioid receptor (MOR)): 47.5% | EC50 [2]: 1.59 nM | Emax [3]: 34.6% | EC50 [4]: 0.171 nM | Ki [5]: 0.256 nM | EC50 (Mu-type opioid receptor [6]): 4.7 nM | Ki [7]: 23.2 nM | Ratio Ki (Homo sapiens [8]): 90.6 | Ki (Mu-type opioid receptor [9]): 1.42 nM | Emax [10]: 27.7%

CN(C(=O)Cc1ccccc1)[C@@H]1C[C@]23CCN(CC4CC4)[C@H](Cc4ccc(O)cc42)[C@]32CC[C@@H]1O2
Ratio Ki (Homo sapiens [1]): 6.3 | Emax at 2 h (mu opioid receptor (MOR)): 40.3% | EC50 [2]: 8.44 nM | Emax ([3]; filed as partial agonist): 88.6% | EC50 [4]: 43.6 nM | Ki [5]: 0.278 nM | EC50 (Mu-type opioid receptor [6]): 7.11 nM | Ki [7]: 19.5 nM | Ratio Ki (Homo sapiens [8]): 70.1 | Ki (Mu-type opioid receptor [9]): 1.74 nM | Emax [10]: 39.7%

CN(C(=O)CCc1ccccc1)[C@@H]1C[C@]23CCN(CC4CC4)[C@H](Cc4ccc(O)cc42)[C@]32CC[C@@H]1O2
Ratio Ki (Homo sapiens [1]): 4.4 | Emax at 2 h (mu opioid receptor (MOR)): 33.4% | EC50 [2]: 9.95 nM | Emax ([3]; filed as partial agonist): 58.5% | EC50 [4]: 21.4 nM | Ki [5]: 0.332 nM | EC50 (Mu-type opioid receptor [6]): 5.61 nM | Ki [7]: 20.5 nM | Ratio Ki (Homo sapiens [8]): 61.7 | Ki (Mu-type opioid receptor [9]): 1.46 nM | Emax ([10]; filed as agonist): 85.2%

O=C(CCc1ccccc1)N[C@H]1C[C@]23CCN(CC4CC4)[C@H](Cc4ccc(O)cc42)[C@]32CC[C@@H]1O2
Ratio Ki (Homo sapiens [1]): 0.46 | Emax at 2 h (mu opioid receptor (MOR)): 11.4% | EC50 [2]: 6.32 nM | Emax ([3]; filed as partial agonist): 50.3% | EC50 [4]: 54.7 nM | Ki [5]: 2.36 nM | EC50 (Mu-type opioid receptor [6]): 9.35 nM | Ki [7]: 5.14 nM | Ratio Ki (Homo sapiens [8]): 2.2 | Ki (Mu-type opioid receptor [9]): 1.08 nM | Emax ([10]; filed as agonist): 111%

O=C(N[C@@H]1C[C@]23CCN(CC4CC4)[C@H](Cc4ccc(O)cc42)[C@]32CC[C@@H]1O2)c1ccccc1
Ratio Ki (Homo sapiens [1]): 1.2 | Emax at 2 h (mu opioid receptor (MOR)): 47.2% | EC50 [2]: 1.82 nM | Emax ([3]; filed as partial agonist): 87.7% | EC50 [4]: 2.86 nM | Ki [5]: 0.14 nM | EC50 (Mu-type opioid receptor [6]): 2.72 nM | Ki [7]: 1.67 nM | Ratio Ki (Homo sapiens [8]): 11.9 | Ki (Mu-type opioid receptor [9]): 0.165 nM | Emax ([10]; filed as agonist): 106%

O=C(Cc1ccccc1)N[C@@H]1C[C@]23CCN(CC4CC4)[C@H](Cc4ccc(O)cc42)[C@]32CC[C@@H]1O2
Ratio Ki (Homo sapiens [1]): 1.4 | Emax at 2 h (mu opioid receptor (MOR)): 28.2% | EC50 [2]: 3.11 nM | Emax ([3]; filed as partial agonist): 68.4% | EC50 [4]: 5.96 nM | Ki [5]: 0.193 nM | EC50 (Mu-type opioid receptor [6]): 9.43 nM | Ki [7]: 0.522 nM | Ratio Ki (Homo sapiens [8]): 2.7 | Ki (Mu-type opioid receptor [9]): 0.267 nM | Emax ([10]; filed as agonist): 85.3%

O=C(N[C@H]1C[C@]23CCN(CC4CC4)[C@H](Cc4ccc(O)cc42)[C@]32CC[C@@H]1O2)c1ccccc1
Ratio Ki (Homo sapiens [1]): 0.05 | Activity (Mu-type opioid receptor [11]): 10.2% | EC50 [2]: 32.4 nM | Emax [3]: 23.7% | EC50 [4]: 51.9 nM | Ki [5]: 10.6 nM | Ki [7]: 5.68 nM | Ratio Ki (Homo sapiens [8]): 0.54 | Ki (Mu-type opioid receptor [9]): 0.564 nM | Emax ([10]; filed as agonist): 97.4%

O=C(Cc1ccccc1)N[C@H]1C[C@]23CCN(CC4CC4)[C@H](Cc4ccc(O)cc42)[C@]32CC[C@@H]1O2
Ratio Ki (Homo sapiens [1]): 2.2 | Emax at 2 h (mu opioid receptor (MOR)): 8.7% | EC50 [2]: 13.4 nM | Emax [3]: 35.8% | EC50 [4]: 3.83 nM | Ki [5]: 1.71 nM | EC50 (Mu-type opioid receptor [6]): 5.37 nM | Ki [7]: 4.98 nM | Ratio Ki (Homo sapiens [8]): 2.9 | Ki (Mu-type opioid receptor [9]): 3.81 nM | Emax ([10]; filed as agonist): 101%

O=C(CCc1ccccc1)N[C@@H]1C[C@]23CCN(CC4CC4)[C@H](Cc4ccc(O)cc42)[C@]32CC[C@@H]1O2
Ratio Ki (Homo sapiens [1]): 0.64 | Emax at 2 h (mu opioid receptor (MOR)): 10.2% | EC50 [2]: 5.31 nM | Emax ([3]; filed as partial agonist): 75.4% | EC50 [4]: 112 nM | Ki [5]: 0.197 nM | EC50 (Mu-type opioid receptor [6]): 12.7 nM | Ki [7]: 5.18 nM | Ratio Ki (Homo sapiens [8]): 26.3 | Ki (Mu-type opioid receptor [9]): 0.126 nM | Emax ([10]; filed as agonist): 104%
